Laboratory results: PubChem BioAssay AID330 (DTP/NCI, 2004)
Values joined by “and” are separate entries in the source; they are usually repeats but may differ in a detail not shown here. Equal entries are not always repeated. Toxic doses and inconclusive results are not listed. Rule for the calls: active = survival T/C of 150% or more; inactive = T/C below 125% in these data.

Test system: P388 leukemia ip, CD2F1 mice, survival T/C
Assay: NCI In Vivo Anticancer Drug Screen. Data for tumor model P388 Leukemia (intraperitoneal) in CD2F1 (CDF1) mice
Details: endpoint: median survival time, higher = longer survival
Summary of the method: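 Mice carrying the transplanted tumor received test compound or vehicle. Survival was recorded in each group, and the value is the treated-group measurement divided by that of the vehicle-treated control group.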

[1] = dose: 25.0 mg/kg/injection, schedule: Q01DX009 (ip), vehicle: water
[2] = dose: 50.0 mg/kg/injection, schedule: Q01DX009 (ip), vehicle: water
[3] = dose: 100.0 mg/kg/injection, schedule: Q01DX009 (ip), vehicle: water
[4] = dose: 200.0 mg/kg/injection, schedule: Q01DX009 (ip), vehicle: water
[5] = dose: 6.25 mg/kg/injection, schedule: Q01DX005 (ip), vehicle: saline with Tween-80
[6] = dose: 12.5 mg/kg/injection, schedule: Q01DX005 (ip), vehicle: saline with Tween-80
[7] = dose: 50.0 mg/kg/injection, schedule: Q01DX005 (ip), vehicle: saline with Tween-80
[8] = dose: 12.5 mg/kg/injection, schedule: Q01DX009 (ip), vehicle: water
[9] = dose: 25.0 mg/kg/injection, schedule: Q01DX005 (ip), vehicle: saline with Tween-80
[10] = dose: 100.0 mg/kg/injection, schedule: Q01DX005 (ip), vehicle: saline with Tween-80
[11] = dose: 200.0 mg/kg/injection, schedule: Q01DX005 (ip), vehicle: saline with Tween-80
[12] = dose: 12.5 mg/kg/injection, schedule: Q01DX009 (ip), vehicle: saline
[13] = dose: 25.0 mg/kg/injection, schedule: Q01DX009 (ip), vehicle: saline
[14] = dose: 50.0 mg/kg/injection, schedule: Q01DX009 (ip), vehicle: saline with Tween-80
[15] = dose: 60.0 mg/kg/injection, schedule: Q01DX005 (ip), vehicle: saline with Tween-80
[16] = dose: 120.0 mg/kg/injection, schedule: Q01DX005 (ip), vehicle: saline with Tween-80
[17] = dose: 240.0 mg/kg/injection, schedule: Q01DX005 (ip), vehicle: saline with Tween-80
[18] = dose: 60.0 mg/kg/injection, schedule: Q01DX005 (ip), vehicle: Klucel (hydroxypropylcellulose) (HPC)

Measured: T/C

COc1ccn(CC2(C)CO2)c(=O)n1 (configuration not stated)
inactive: dose: 60.0 mg/kg/injection, schedule: Q01DX005 (ip), vehicle: saline 103 % of control | dose: 120.0 mg/kg/injection, schedule: Q01DX005 (ip), vehicle: saline 106 % of control | dose: 240.0 mg/kg/injection, schedule: Q01DX005 (ip), vehicle: saline 104 % of control

COc1cccc(C(O)c2ccncc2)c1OC (configuration not stated)
inactive: [1] 90 % of control | [2] 90 % of control | [3] 93 % of control | [4] 90 % of control

O=C(O)CSc1nc(-c2ccccc2)c(-c2ccccc2)n1-c1ccccn1
inactive: [1] 103 % of control and 124 % of control | [2] 108 % of control and 97 % of control | [3] 118 % of control and 122 % of control and 86 % of control | [4] 115 % of control and 86 % of control

C=C1C(=O)C23C(O)C1CCC2C12CCCC(C)(C)C1C(O)C3(O)OC2 (configuration not stated)
inactive: dose: 2.5 mg/kg/injection, schedule: Q01DX005 (ip), vehicle: Klucel (hydroxypropylcellulose) (HPC) 101 % of control | dose: 5.0 mg/kg/injection, schedule: Q01DX005 (ip), vehicle: Klucel (hydroxypropylcellulose) (HPC) 107 % of control | dose: 10.0 mg/kg/injection, schedule: Q01DX005 (ip), vehicle: Klucel (hydroxypropylcellulose) (HPC) 108 % of control

CCCCNc1nc(SC)nc2nc[nH]c12
inactive: dose: 50.0 mg/kg/injection, schedule: Q04DX003 (ip), vehicle: saline with Tween-80 100 % of control | dose: 100.0 mg/kg/injection, schedule: Q04DX003 (ip), vehicle: saline with Tween-80 98 % of control | dose: 200.0 mg/kg/injection, schedule: Q04DX003 (ip), vehicle: saline with Tween-80 96 % of control | dose: 400.0 mg/kg/injection, schedule: Q04DX003 (ip), vehicle: saline with Tween-80 95 % of control

CC(=O)OC1CCC2C3CCC4=C(C(=O)C=CC4(C)O)C3CCC12C (configuration not stated)
inactive: dose: 4.0 mg/kg/injection, schedule: Q01DX009 (ip), vehicle: Klucel (hydroxypropylcellulose) (HPC) 93 % of control | dose: 8.0 mg/kg/injection, schedule: Q01DX009 (ip), vehicle: Klucel (hydroxypropylcellulose) (HPC) 90 % of control | dose: 16.0 mg/kg/injection, schedule: Q01DX009 (ip), vehicle: Klucel (hydroxypropylcellulose) (HPC) 101 % of control | dose: 32.0 mg/kg/injection, schedule: Q01DX009 (ip), vehicle: Klucel (hydroxypropylcellulose) (HPC) 88 % of control | dose: 64.0 mg/kg/injection, schedule: Q01DX009 (ip), vehicle: Klucel (hydroxypropylcellulose) (HPC) 108 % of control

Cc1ccc(N=C2c3ccccc3-c3ccc(NC(=O)c4ccccc4)cc32)cc1
inactive: dose: 3.12 mg/kg/injection, schedule: Q01DX005 (ip), vehicle: saline with Tween-80 93 % of control | [5] 93 % of control | [6] 86 % of control | [7] 86 % of control

CC(=O)N=c1nc(N)nc2n(O)cc(-c3ccccc3)nc1-2
inactive: dose: 31.25 mg/kg/injection, schedule: Q01DX009 (ip), vehicle: saline with Tween-80 113 % of control | dose: 62.5 mg/kg/injection, schedule: Q01DX009 (ip), vehicle: saline with Tween-80 99 % of control | dose: 125.0 mg/kg/injection, schedule: Q01DX009 (ip), vehicle: saline with Tween-80 97 % of control

CCC(C)N(CC)CCNc1cc(OC)cc2cccnc12 (configuration not stated)
inactive: dose: 50.0 mg/kg/injection, schedule: Q01DX005 (ip), vehicle: saline 103 % of control | dose: 100.0 mg/kg/injection, schedule: Q01DX005 (ip), vehicle: saline 99 % of control

CCOC(=O)NNS(=O)(=O)CCC(N)C(=O)O (configuration not stated)
inactive: [8] 98 % of control | [1] 88 % of control and 95 % of control | [2] 87 % of control and 90 % of control | [3] 93 % of control | [4] 109 % of control and 86 % of control | dose: 400.0 mg/kg/injection, schedule: Q01DX009 (ip), vehicle: water 111 % of control

C1=Nc2ccccc2/C1=C/c1c[nH]c2ccccc12
inactive: [9] 110 % of control | [7] 100 % of control and 103 % of control and 104 % of control | [10] 101 % of control and 103 % of control and 104 % of control | [11] 104 % of control and 118 % of control and 122 % of control | dose: 400.0 mg/kg/injection, schedule: Q01DX005 (ip), vehicle: saline with Tween-80 104 % of control

COc1cc(NC(C)=O)c(OC)cc1N
inactive: dose: 25.0 mg/kg/injection, schedule: Q04DX002 (ip), vehicle: saline 104 % of control | dose: 50.0 mg/kg/injection, schedule: Q04DX002 (ip), vehicle: saline 98 % of control

O=C(OC1(c2nccc3ccccc23)CCN(Cc2ccccc2)CC1)c1ccccc1
inactive: [12] 100 % of control | [13] 101 % of control | [14] 93 % of control | dose: 50.0 mg/kg/injection, schedule: Q01DX009 (ip), vehicle: saline 97 % of control

O=C(CN=Cc1ccc(Cl)cc1Cl)NNC(=O)c1ccc(Cl)cc1Cl
inactive: dose: 50.0 mg/kg/injection, schedule: Q01DX005 (ip), vehicle: Klucel (hydroxypropylcellulose) (HPC) 92 % of control | dose: 100.0 mg/kg/injection, schedule: Q01DX005 (ip), vehicle: Klucel (hydroxypropylcellulose) (HPC) 96 % of control | dose: 200.0 mg/kg/injection, schedule: Q01DX005 (ip), vehicle: Klucel (hydroxypropylcellulose) (HPC) 92 % of control

Nc1[nH]n(-c2ccccc2)c(=O)c1C1c2ccccc2Sc2ccccc21
inactive: [15] 99 % of control | [16] 99 % of control | [17] 95 % of control

O=NNc1nc2ccccc2s1
inactive: dose: 1.56 mg/kg/injection, schedule: Q01DX009 (ip), vehicle: water 97 % of control | dose: 3.12 mg/kg/injection, schedule: Q01DX009 (ip), vehicle: water 100 % of control and 105 % of control | dose: 6.25 mg/kg/injection, schedule: Q01DX009 (ip), vehicle: water 106 % of control and 109 % of control | [8] 100 % of control and 92 % of control | [1] 102 % of control and 106 % of control | [2] 92 % of control

COc1ccc2sc3c(C)ccc(NCCCC4CCCN5CCCCC45)c3c(=O)c2c1 (configuration not stated)
inactive: [5] 94 % of control | [6] 92 % of control | [9] 89 % of control

CCCCCCC(/C=C/c1c(Cl)cccc1Cl)=N\O
inactive: dose: 25.0 mg/kg/injection, schedule: Q01DX009 (ip), vehicle: saline with Tween-80 98 % of control | [14] 100 % of control | dose: 100.0 mg/kg/injection, schedule: Q01DX009 (ip), vehicle: saline with Tween-80 99 % of control and 109 % of control | dose: 200.0 mg/kg/injection, schedule: Q01DX009 (ip), vehicle: saline with Tween-80 101 % of control | dose: 400.0 mg/kg/injection, schedule: Q01DX009 (ip), vehicle: saline with Tween-80 118 % of control

Nc1nc(N)c(N2CCN(Cc3ccccc3)CC2)c(Cl)n1
inactive: dose: 15.0 mg/kg/injection, schedule: Q01DX005 (ip), vehicle: Klucel (hydroxypropylcellulose) (HPC) 101 % of control | dose: 30.0 mg/kg/injection, schedule: Q01DX005 (ip), vehicle: Klucel (hydroxypropylcellulose) (HPC) 99 % of control | [18] 99 % of control and 104 % of control

CCO/C=C1/N=C(c2cc(Cl)cc([N+](=O)[O-])c2)OC1=O
inactive: [15] 101 % of control | [16] 101 % of control | [17] 93 % of control

CC(=O)Nc1ccc(C(O)C2=CC(=O)c3ccccc3C2=O)cc1 (configuration not stated)
inactive: dose: 6.25 mg/kg/injection, schedule: Q01DX009 (ip), vehicle: saline 97 % of control | [12] 97 % of control | [13] 86 % of control | dose: 25.0 mg/kg/injection, schedule: Q01DX009 (ip), vehicle: suspension in saline 103 % of control | dose: 50.0 mg/kg/injection, schedule: Q01DX009 (ip), vehicle: suspension in saline 114 % of control | dose: 100.0 mg/kg/injection, schedule: Q01DX009 (ip), vehicle: suspension in saline 113 % of control

CCOC(=O)/C(C#N)=C/NCC1CC1
inactive: [18] 102 % of control | dose: 120.0 mg/kg/injection, schedule: Q01DX005 (ip), vehicle: Klucel (hydroxypropylcellulose) (HPC) 98 % of control | dose: 240.0 mg/kg/injection, schedule: Q01DX005 (ip), vehicle: Klucel (hydroxypropylcellulose) (HPC) 98 % of control

COc1c2occc2c(N=Cc2c[nH]c3ccccc23)c2ccc(=O)oc12
inactive: [7] 92 % of control | [10] 93 % of control | [11] 86 % of control
